Source: PubChem BioAssay AID330 (DTP/NCI, 2004)
Toxic doses and inconclusive results are not listed. The calls were made as follows: active = survival T/C of 150% or more; inactive = T/C below 125% in these data.

Test system: P388 leukemia ip, CD2F1 mice, survival T/C
Assay: NCI In Vivo Anticancer Drug Screen. Data for tumor model P388 Leukemia (intraperitoneal) in CD2F1 (CDF1) mice
Details: endpoint: median survival time, higher = longer survival
Procedure, shortened: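 Mice carrying the transplanted tumor received test compound or vehicle. Survival was recorded in each group, and the value is the treated-group measurement divided by that of the vehicle-treated control group.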

[1] = dose: 50.0 mg/kg/injection, schedule: Q01DX009 (ip), vehicle: saline with Tween-80
[2] = dose: 100.0 mg/kg/injection, schedule: Q01DX009 (ip), vehicle: saline with Tween-80
[3] = dose: 200.0 mg/kg/injection, schedule: Q01DX009 (ip), vehicle: saline with Tween-80
[4] = dose: 60.0 mg/kg/injection, schedule: Q01DX005 (ip), vehicle: saline with Tween-80
[5] = dose: 120.0 mg/kg/injection, schedule: Q01DX005 (ip), vehicle: saline with Tween-80
[6] = dose: 400.0 mg/kg/injection, schedule: Q01DX001 (ip), vehicle: saline
[7] = dose: 25.0 mg/kg/injection, schedule: Q01DX009 (ip), vehicle: saline with Tween-80

Measured: T/C

CCC12C(=O)C(CC)(C(c3ccccc3)=C1c1ccccc1)C1OC(=O)OC12 (configuration not stated)
inactive: [1] 97 % of control | [2] 91 % of control | [3] 86 % of control

N#Cc1c(C(=O)NOCCCc2ccccc2)cc(-c2ccc(F)cc2)[nH]c1=O
inactive: [4] 107 % of control | [5] 103 % of control

O=C(COc1ccccc1)NC(=S)Nc1nccs1
inactive: [4] 96 % of control | [5] 93 % of control | dose: 240.0 mg/kg/injection, schedule: Q01DX005 (ip), vehicle: saline with Tween-80 102 % of control

O=C(CCc1ccccc1)OC/C=C/COC(=O)c1ccccc1
inactive: dose: 50.0 mg/kg/injection, schedule: Q01DX009 (ip), vehicle: Klucel (hydroxypropylcellulose) (HPC) 102 % of control | dose: 100.0 mg/kg/injection, schedule: Q01DX009 (ip), vehicle: Klucel (hydroxypropylcellulose) (HPC) 111 % of control | dose: 200.0 mg/kg/injection, schedule: Q01DX009 (ip), vehicle: Klucel (hydroxypropylcellulose) (HPC) 106 % of control

CCCC(=O)CC(=O)Nc1ccccc1
inactive: dose: 100.0 mg/kg/injection, schedule: Q01DX001 (ip), vehicle: saline 109 % of control | dose: 200.0 mg/kg/injection, schedule: Q01DX001 (ip), vehicle: saline 118 % of control | [6] 118 % of control

N#CC1=NOC(C(N)C(=O)O)C1 (configuration not stated)
inactive: dose: 50.0 mg/kg/injection, schedule: Q04DX002 (ip), vehicle: saline 103 % of control | dose: 100.0 mg/kg/injection, schedule: Q04DX002 (ip), vehicle: saline 100 % of control | dose: 200.0 mg/kg/injection, schedule: Q04DX002 (ip), vehicle: saline 98 % of control

COC(=O)CCSC(=O)NCCCCCCNC(=O)SCCC(=O)OC
inactive: dose: 50.0 mg/kg/injection, schedule: Q01DX005 (ip), vehicle: Klucel (hydroxypropylcellulose) (HPC) 98 % of control | dose: 100.0 mg/kg/injection, schedule: Q01DX005 (ip), vehicle: Klucel (hydroxypropylcellulose) (HPC) 100 % of control | dose: 200.0 mg/kg/injection, schedule: Q01DX005 (ip), vehicle: Klucel (hydroxypropylcellulose) (HPC) 98 % of control

CCOc1cc2c(cc1C(C)c1ccc(O)c(OC)c1)OCO2 (configuration not stated)
inactive: dose: 50.0 mg/kg/injection, schedule: Q01DX005 (ip), vehicle: distilled water + Tween-80 99 % of control | dose: 100.0 mg/kg/injection, schedule: Q01DX005 (ip), vehicle: distilled water + Tween-80 101 % of control | dose: 200.0 mg/kg/injection, schedule: Q01DX005 (ip), vehicle: distilled water + Tween-80 104 % of control

C=C1C(C(=O)OC)=NNc2c(C(N)=O)ncn21
inactive: dose: 25.0 mg/kg/injection, schedule: Q01DX001 (ip), vehicle: saline 101 % of control | dose: 50.0 mg/kg/injection, schedule: Q01DX001 (ip), vehicle: saline 102 % of control | dose: 100.0 mg/kg/injection, schedule: Q01DX001 (ip), vehicle: Klucel (hydroxypropylcellulose) (HPC) 98 % of control | dose: 200.0 mg/kg/injection, schedule: Q01DX001 (ip), vehicle: Klucel (hydroxypropylcellulose) (HPC) 105 % of control | [6] 100 % of control

CN1CCN(C)B1N=S(C)(C)=O
inactive: dose: 50.0 mg/kg/injection, schedule: Q01DX005 (ip), vehicle: olive oil, sesame oil, peanut oil 111 % of control | dose: 100.0 mg/kg/injection, schedule: Q01DX005 (ip), vehicle: olive oil, sesame oil, peanut oil 114 % of control

C/C=C(\C)[C@H](O)C(COCc1ccccc1)NS(=O)(=O)c1ccc(C)cc1 (some centres not stated)
inactive: dose: 60.0 mg/kg/injection, schedule: Q01DX005 (ip), vehicle: Klucel (hydroxypropylcellulose) (HPC) 100 % of control | dose: 120.0 mg/kg/injection, schedule: Q01DX005 (ip), vehicle: Klucel (hydroxypropylcellulose) (HPC) 100 % of control | dose: 240.0 mg/kg/injection, schedule: Q01DX005 (ip), vehicle: Klucel (hydroxypropylcellulose) (HPC) 92 % of control

CSc1cccc(NC(=O)N2CCCCC2C)c1 (configuration not stated)
inactive: [1] 100 % of control | [2] 92 % of control | [3] 100 % of control

CC1CCC2C(C)C(=O)OC2C2(C)C(=O)C=CC12 (configuration not stated)
inactive: dose: 12.5 mg/kg/injection, schedule: Q01DX009 (ip), vehicle: saline with Tween-80 103 % of control | [7] 113 % of control | [1] 110 % of control

O=[N+]([O-])c1ccc(-c2nc(/C=N/N3CCSCC3)cs2)s1
inactive: [7] 100 % of control | [1] 95 % of control | [2] 95 % of control
